Source: the NIST ThermoML archive (doi:10.1016/j.jct.2015.08.013)
± gives the expanded uncertainty stated by the source.

Test: xn = mol fraction of the nth substance listed
Conditions: 100 kPa, Liquid; for mass density: Vibrating tube method; for viscosity: Capillary tube (Ostwald / Ubbelohde) method

SMILES: O=C1CCCO1 [γ-butyrolactone] + CN1CCCC1=O
- mass density (293.15 K, x2 = 0): 1129.2 ± 1.6 kg/m3
- mass density (293.15 K, x2 = 0.1011): 1117.01 ± 1.7 kg/m3
- mass density (293.15 K, x2 = 0.1484): 1111.57 ± 1.6 kg/m3
- mass density (293.15 K, x2 = 0.2506): 1100.29 ± 1.6 kg/m3
- mass density (293.15 K, x2 = 0.3027): 1094.76 ± 1.6 kg/m3
- mass density (293.15 K, x2 = 0.4002): 1084.79 ± 1.6 kg/m3
- mass density (293.15 K, x2 = 0.4953): 1075.51 ± 1.6 kg/m3
- mass density (293.15 K, x2 = 0.5983): 1065.98 ± 1.6 kg/m3
- mass density (293.15 K, x2 = 0.6977): 1057.25 ± 1.6 kg/m3
- mass density (293.15 K, x2 = 0.8022): 1048.51 ± 1.6 kg/m3
- mass density (293.15 K, x2 = 0.851): 1044.56 ± 1.6 kg/m3
- mass density (293.15 K, x2 = 0.9418): 1037.29 ± 1.6 kg/m3
- viscosity (298.15 K, x2 = 0): 1.73 ± 0.04 mPa·s
- viscosity (298.15 K, x2 = 0.1002): 1.719 ± 0.037 mPa·s
- viscosity (298.15 K, x2 = 0.2002): 1.71 ± 0.036 mPa·s
- viscosity (298.15 K, x2 = 0.3078): 1.701 ± 0.036 mPa·s
- viscosity (298.15 K, x2 = 0.3999): 1.694 ± 0.036 mPa·s
- viscosity (298.15 K, x2 = 0.4998): 1.689 ± 0.036 mPa·s
- viscosity (298.15 K, x2 = 0.6003): 1.685 ± 0.036 mPa·s
- viscosity (298.15 K, x2 = 0.7002): 1.682 ± 0.036 mPa·s
- viscosity (298.15 K, x2 = 0.8011): 1.679 ± 0.036 mPa·s
- viscosity (298.15 K, x2 = 0.8998): 1.678 ± 0.036 mPa·s
- mass density (298.15 K, x2 = 0): 1124.26 ± 1.6 kg/m3
- mass density (298.15 K, x2 = 0.1011): 1112.14 ± 1.7 kg/m3
- mass density (298.15 K, x2 = 0.1484): 1106.72 ± 1.6 kg/m3
- mass density (298.15 K, x2 = 0.2506): 1095.51 ± 1.6 kg/m3
- mass density (298.15 K, x2 = 0.3027): 1090 ± 1.6 kg/m3
- mass density (298.15 K, x2 = 0.4002): 1080.08 ± 1.6 kg/m3
- mass density (298.15 K, x2 = 0.4953): 1070.84 ± 1.6 kg/m3
- mass density (298.15 K, x2 = 0.5983): 1061.35 ± 1.6 kg/m3
- mass density (298.15 K, x2 = 0.6977): 1052.68 ± 1.6 kg/m3
- mass density (298.15 K, x2 = 0.8022): 1043.99 ± 1.6 kg/m3
- mass density (298.15 K, x2 = 0.851): 1040.04 ± 1.6 kg/m3
- mass density (298.15 K, x2 = 0.9418): 1032.8 ± 1.6 kg/m3
- viscosity (303.15 K, x2 = 0): 1.63 ± 0.04 mPa·s
- viscosity (303.15 K, x2 = 0.1002): 1.614 ± 0.034 mPa·s
- viscosity (303.15 K, x2 = 0.2002): 1.601 ± 0.034 mPa·s
- viscosity (303.15 K, x2 = 0.3078): 1.587 ± 0.034 mPa·s
- viscosity (303.15 K, x2 = 0.3999): 1.577 ± 0.034 mPa·s
- viscosity (303.15 K, x2 = 0.4998): 1.568 ± 0.033 mPa·s
- viscosity (303.15 K, x2 = 0.6003): 1.559 ± 0.033 mPa·s
- viscosity (303.15 K, x2 = 0.7002): 1.552 ± 0.033 mPa·s
- viscosity (303.15 K, x2 = 0.8011): 1.546 ± 0.033 mPa·s
- viscosity (303.15 K, x2 = 0.8998): 1.541 ± 0.033 mPa·s
- mass density (303.15 K, x2 = 0): 1119.33 ± 1.6 kg/m3
- mass density (303.15 K, x2 = 0.1011): 1107.27 ± 1.6 kg/m3
- mass density (303.15 K, x2 = 0.1484): 1101.88 ± 1.6 kg/m3
- mass density (303.15 K, x2 = 0.2506): 1090.7 ± 1.6 kg/m3
- mass density (303.15 K, x2 = 0.3027): 1085.22 ± 1.6 kg/m3
- mass density (303.15 K, x2 = 0.4002): 1075.32 ± 1.6 kg/m3
- mass density (303.15 K, x2 = 0.4953): 1066.12 ± 1.6 kg/m3
- mass density (303.15 K, x2 = 0.5983): 1056.67 ± 1.6 kg/m3
- mass density (303.15 K, x2 = 0.6977): 1048.03 ± 1.6 kg/m3
- mass density (303.15 K, x2 = 0.8022): 1039.38 ± 1.6 kg/m3
- mass density (303.15 K, x2 = 0.851): 1035.46 ± 1.6 kg/m3
- mass density (303.15 K, x2 = 0.9418): 1028.25 ± 1.6 kg/m3
- viscosity (308.15 K, x2 = 0): 1.52 ± 0.03 mPa·s
- viscosity (308.15 K, x2 = 0.1002): 1.504 ± 0.032 mPa·s
- viscosity (308.15 K, x2 = 0.2002): 1.49 ± 0.032 mPa·s
- viscosity (308.15 K, x2 = 0.3078): 1.477 ± 0.031 mPa·s
- viscosity (308.15 K, x2 = 0.3999): 1.468 ± 0.031 mPa·s
- viscosity (308.15 K, x2 = 0.4998): 1.458 ± 0.031 mPa·s
- viscosity (308.15 K, x2 = 0.6003): 1.45 ± 0.031 mPa·s
- viscosity (308.15 K, x2 = 0.7002): 1.443 ± 0.031 mPa·s
- viscosity (308.15 K, x2 = 0.8011): 1.437 ± 0.031 mPa·s
- viscosity (308.15 K, x2 = 0.8998): 1.433 ± 0.031 mPa·s
- mass density (308.15 K, x2 = 0): 1114.31 ± 1.6 kg/m3
- mass density (308.15 K, x2 = 0.1011): 1102.38 ± 1.6 kg/m3
- mass density (308.15 K, x2 = 0.1484): 1097.05 ± 1.6 kg/m3
- mass density (308.15 K, x2 = 0.2506): 1085.98 ± 1.6 kg/m3
- mass density (308.15 K, x2 = 0.3027): 1080.55 ± 1.6 kg/m3
- mass density (308.15 K, x2 = 0.4002): 1070.75 ± 1.6 kg/m3
